# Assay results as given in patent US20210355104A1, “ADENOSINE RECEPTOR BINDING COMPOUNDS” (Nikang Therapeuticsm Inc., priority 2018, published 2021).
# Where “and” joins values, the source holds several entries; their conditions need not be identical. Equal values may be shown once.
# Key:
# [1] = tested on: p-CREB (phosphorylated cAMP response-element binding protein) in human whole blood; assay: p-CREB assay in human whole blood by flow cytometry (NECA stimulation, CD4 staining); type: cell-based; conditions: Homo sapiens
# Protocol: Assay protocol for p-CREB (phosphorylated cAMP response-element binding protein) in human whole blood by flow cytometry
# Fresh human whole blood (Biological Specialty Corporation) was added at 100 ul per wellinto a 96-well plate and treated with test compounds (Serial dilutions of 1:3 with starting concentration at 30 uM, 11 concentrations total, in the presence of adenosine deaminase) for one hour at room temperature on a plate shaker. Then 10 ul of 10× NECA (50 uM stock in PBS) and 10 ul of 10 × Rolipram (50 uM stock in PBS) were added, with designated wells for unstimulated (Rolipram+DMSO) and stimulated (Rolipram+NECA+DMSO) conditions. The plates were mixed well and incubated at room temperature for 30 min on a plate shaker. 1× lyse/Fix buffer (5× stock, BD #558049) was warmed to 37° in a water bath. 1200 ul of pre-warmed 1× lyse/Fix buffer was then added to the plate, which was then sealed and mixed by inverting the plate a few times. The plate was then incubated for 30 min at 37° in a water bath. After incubation, the plate was centrifuged at 1600 rpm for 5 min and the supernatant was decanted, then 1200 ul PBS was added and the plate was mixed by inverting a few times followed by centrifuging at 1600 rpm for 5 min and again decanting the supernatant. Then, 200 ul FIX PERM buffer II (BD #558052) was added and the plate was mixed well, then kept on ice for 45 min After spinning the plate at 1600 rpm for 5 min the supernatant was again decanted. Then was added 200 ul staining buffer (BD #554657), and the plate was mixed well and spun at 1600 rpm for 5 min, then the supernatant was again decanted. 200 ul staining buffer was added, the plate was mixed well and the plate was sealed at this step for storage at 4° overnight or until staining. Before staining, the plate was spun at 1600 rpm for 5 min and the supernatant was again decanted. Antibody mix in staining buffer was prepared (75 ul/well, 1:50 dilution for p-CREB antibody from Cell Signaling Tech #14001S, 1:200 dilution for CD4 antibody from BD #566320) and the cells were resuspended in the above antibody mix solution. After mixing well, the plate was incubated (shielded from light) at room temperature for two hours on a plate shaker. It was then spun at 1600 rpm for 5 min and the supernatant was decanted. 200 ul staining buffer was then added to wash cells, and the plate was then mixed by shaking or pipetting. The wash step was repeated at least one more time, and after the final wash, cells were resusptended in 200 ul staining buffer in U bottom plate for flow cytometry analysis.
# [2] = molecular target: T1, Adenosine A2A receptor (Homo sapiens, UniProt P29274); assay: cAMP assay in 293A cells stably expressing the adenosine A2A receptor (CGS21680 stimulation, HTRF); type: cell-based; design: expressed in transfected cells; host or cells: 293A cells (Invitrogen, Cat# R705-07) infected with A2A-expressing lentivirus (custom packaged by Biosettia), puromycin selected; conditions: 0.1% BSA
# [3] = molecular target: T1, Adenosine A2A receptor; assay: Adenosine A2A receptor competitive binding assay (Tag-lite HTRF); conditions: Tag-lite adenosine A2A receptor ligand binding
# Outline: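 Compound displacement of a red fluorescent antagonist tracer (added at 60 nM stock) from donor-labelled, pre-transfected human A2A cells was read by HTRF after 2 h at room temperature; compound dilutions contained 0.6% DMSO.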
# [4] = replicate values separated by /
# [5] = 293A cells stably expressing A2A receptor, 1 uM CGS21680 stimulation, replicate values separated by /, read-out: cAMP (nM) 0.1% BSA, 1 uM CGS
# [6] = 293A-A2AR cells, 1 uM CGS, read-out: cAMP (nM) 0.1% BSA, 1 uM CGS
# [7] = 2 h room temperature, values separated by / are repeat determinations
# [8] = 293A-A2AR cells, 8 nM CGS, values separated by / are repeat determinations, read-out: cAMP (nM) 0.1% BSA, 8 nM CGS
# [9] = 293A-A2AR cells, 1 uM CGS, values separated by / are repeat determinations, read-out: cAMP (nM) 0.1% BSA, 1 uM CGS
# T1 sequence (P29274 whole entry): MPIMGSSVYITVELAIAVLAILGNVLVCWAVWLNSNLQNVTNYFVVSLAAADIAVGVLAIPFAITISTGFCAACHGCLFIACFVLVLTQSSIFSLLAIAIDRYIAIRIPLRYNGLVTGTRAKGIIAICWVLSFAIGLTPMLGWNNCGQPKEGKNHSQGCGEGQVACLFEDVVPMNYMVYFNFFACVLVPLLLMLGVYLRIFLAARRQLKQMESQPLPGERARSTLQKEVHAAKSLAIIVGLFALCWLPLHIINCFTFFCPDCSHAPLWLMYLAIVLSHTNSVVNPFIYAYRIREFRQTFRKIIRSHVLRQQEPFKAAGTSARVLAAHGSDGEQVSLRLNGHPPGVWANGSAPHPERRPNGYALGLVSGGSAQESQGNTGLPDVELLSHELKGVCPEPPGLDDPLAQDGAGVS
smiles,measurement,setting,value
"Cc1cc(-c2c(OCc3cccc(CNCCO)n3)nc(N)nc2-c2ccc(F)cc2)cc(C(F)F)n1 [Example 418, 2-(((6-(((2-amino-5-(2-(difluoromethyl)-6-methylpyridin-4-yl)-6-(4-fluorophenyl)pyrimidin-4-yl)oxy)methyl)pyridin-2-yl)methyl)amino)ethan-1-ol]",IC50,[1]; [4],89.3 nM
same,IC50,[2]; [5],191 nM and 177 nM
"Cc1cc(-c2c(OCc3ccc(=O)n(C)n3)nc(N)nc2-c2ccc(F)cc2)cc(C(F)F)n1 [Example 422, 6-(((2-amino-5-(2-(difluoromethyl)-6-methylpyridin-4-yl)-6-(4-fluorophenyl)pyrimidin-4-yl)oxy)methyl)-2-methylpyridazin-3(2H)-one]",IC50,[1]; [4],424 nM
same,IC50,[2]; [5],432 nM and 338 nM
"Cc1cc(-c2c(OC3CCn4ccnc43)nc(N)nc2-c2ccc(F)cc2)cc(C(F)F)n1 (centres unmarked) [Example 284, 5-(2-(difluoromethyl)-6-methylpyridin-4-yl)-4-((6,7-dihydro-5H-pyrrolo[1,2-a]imidazol-7-yl)oxy)-6-(4-fluorophenyl)pyrimidin-2-amine]",IC50,[1],392 nM
same,IC50,[2]; [6],382 nM and 289 nM
Cc1cc(-c2c(OCc3cccc(OC(CO)CO)n3)nc(N)nc2-c2ccc(F)cc2)cc(C(F)F)n1 [Example 420],IC50,[1]; [4],55.7 nM
same,IC50,[2]; [5],122 nM and 112 nM
"Cc1cc(-c2c(OCc3nc4ccccc4n3C(F)F)nc(N)nc2-c2ccc(F)cc2)cc(C(F)F)n1 [Example 355, 4-((1-(difluoromethyl)-1H-benzo[d]imidazol-2-yl)methoxy)-5-(2-(difluoromethyl)-6-methylpyridin-4-yl)-6-(4-fluorophenyl)pyrimidin-2-amine]",IC50,[1],5.7 nM
same,IC50,[2]; [6],10.2 nM and 11 nM and 13 nM
"CNC(=O)NCc1cccc(COc2nc(N)nc(-c3ccc(F)cc3)c2-c2cc(C)nc(C(F)F)c2)n1 [Example 415, 1-((6-(((2-amino-5-(2-(difluoromethyl)-6-methylpyridin-4-yl)-6-(4-fluorophenyl)pyrimidin-4-yl)oxy)methyl)pyridin-2-yl)methyl)-3-methylurea]",IC50,[1]; [4],16 nM
same,IC50,[2]; [5],97 nM and 152 nM and 129 nM
"Cc1cc(-c2c(OCc3ccnnc3)nc(N)nc2-c2ccc(F)cc2)cc(C(F)F)n1 [Example 285, 5-(2-(difluoromethyl)-6-methylpyridin-4-yl)-4-(4-fluorophenyl)-6-(pyridazin-4-ylmethoxy)pyrimidin-2-amine]",IC50,[1],179 nM
same,IC50,[2]; [6],378 nM and 272 nM
"Cc1cc(-c2c(OCc3ccn(CC(C)(C)C(=O)O)n3)nc(N)nc2-c2ccc(F)cc2)cc(C(F)F)n1 [Example 267, 3-(3-(((2-amino-5-(2-(difluoromethyl)-6-methylpyridin-4-yl)-6-(4-fluorophenyl)pyrimidin-4-yl)oxy)methyl)-1H-pyrazol-1-yl)-2,2-dimethylpropanoic acid]",IC50,[1],5580 nM
"Cc1cc(-c2c(OCc3ccnc(N4CC(C)(O)C4)n3)nc(N)nc2-c2ccc(F)cc2)cc(C(F)F)n1 [Example 266, 1-(4-(((2-amino-5-(2-(difluoromethyl)-6-methylpyridin-4-yl)-6-(4-fluorophenyl)pyrimidin-4-yl)oxy)methyl)pyrimidin-2-yl)-3-methylazetidin-3-ol]",IC50,[1],4910 nM
"Cc1cc(-c2c(OCc3nccn3C3CC3)nc(N)nc2-c2ccc(F)cc2)cc(C(F)F)n1 [Example 170, 4-((1-cyclopropyl-1H-imidazol-2-yl)methoxy)-5-(2-(difluoromethyl)-6-methylpyridin-4-yl)-6-(4-fluorophenyl)pyrimidin-2-amine]",IC50,[3]; [7],1.1 nM (2×) and 2.9 nM
same,IC50,[2]; [8],1.1 nM and 1.6 nM
same,IC50,[2]; [9],33 nM
"Cc1cc(-c2c(OCCc3ccc(NS(C)(=O)=O)cc3)nc(N)nc2-c2ccc(F)cc2)cc(C(F)F)n1 [Example 69, N-(4-(2-((2-amino-5-(2-(difluoromethyl)-6-methylpyridin-4-yl)-6-(4-fluorophenyl)pyrimidin-4-yl)oxy)ethyl)phenyl)methanesulfonamide]",IC50,[3]; [7],38 nM
same,IC50,[2]; [8],5.8 nM
"Cc1cc(-c2c(OCCN(C)c3cccnn3)nc(N)nc2-c2ccc(F)cc2)cc(C(F)F)n1 [Example 150, N-(2-((2-amino-5-(2-(difluoromethyl)-6-methylpyridin-4-yl)-6-(4-fluorophenyl)pyrimidin-4-yl)oxy)ethyl)-N-methylpyridazin-3-amine]",IC50,[3]; [7],2.7 nM and 3.2 nM
same,IC50,[2]; [9],98 nM
"COCCNC(=O)COc1nc(N)nc(-c2ccc(F)cc2)c1-c1cc(C)nc(C(F)F)c1 [Example 45, 2-((2-amino-5-(2-(difluoromethyl)-6-methylpyridin-4-yl)-6-(4-fluorophenyl)pyrimidin-4-yl)oxy)-N-(2-methoxyethyl)acetamide]",IC50,[3]; [7],25.7 nM
same,IC50,[2]; [8],66 nM and 8.9 nM
"CCOC(=O)NCc1nc(N)nc(-c2ccccc2)c1-c1cc(C)nc(C(F)(F)F)c1 [Example 63, Ethyl((2-amino-5-(2-methyl-6-(trifluoromethyl)pyridin-4-yl)-6-phenylpyrimidin-4-yl)methyl)carbamate]",IC50,[3]; [7],37 nM
same,IC50,[2]; [8],8.3 nM
"Cc1cc(-c2c(OCC(=O)NCC(F)(F)F)nc(N)nc2-c2ccc(F)cc2)cc(C(F)F)n1 [Example 161, 2-((2-amino-5-(2-(difluoromethyl)-6-methylpyridin-4-yl)-6-(4-fluorophenyl)pyrimidin-4-yl)oxy)-N-(2,2,2-trifluoroethyl)acetamide]",IC50,[3]; [7],44 nM
same,IC50,[2]; [8],14 nM
CCN(C(=O)COc1nc(N)nc(-c2ccc(F)cc2)c1-c1cc(C)nc(C(F)F)c1)c1ccccc1 [Example 90],IC50,[3]; [7],23 nM
same,IC50,[2]; [8],6.8 nM
"CCn1cnc(COc2nc(N)nc(-c3ccc(F)cc3)c2-c2cc(C)nc(C(F)F)c2)n1 [Example 221, 5-(2-(difluoromethyl)-6-methyipyridin-4-yl)-4-((1-ethyl-1H-1,2,4-triazol-3-yl)methoxy)-6-(4-fluorophenyl)pyrimidin-2-amine]",IC50,[3]; HTRF,24 nM
same,IC50,[2]; [6],444 nM
"Cc1cc(-c2c(OCCNc3ccccn3)nc(N)nc2-c2ccc(F)cc2)cc(C(F)F)n1 [Example 94, 5-(2-(difluoromethyl)-6-methylpyridin-4-yl)-4-(4-fluorophenyl)-6-(2-(pyridin-2-ylamino)ethoxy)pyrimidin-2-amine]",IC50,[3]; [7],2.4 nM
same,IC50,[2]; [8],0.39 nM and 2.9 nM
"CCc1nn[nH]c1COc1nc(N)nc(-c2ccc(F)cc2)c1-c1cc(C)nc(C(F)F)c1 [Example 137, 5-(2-(difluoromethyl)-6-methylpyridin-4-yl)-4-((4-ethyl-1H-1,2,3-triazol-5-yl)methoxy)-6-(4-fluorophenyl)pyrimidin-2-amine]",IC50,[3]; [7],92 nM
same,IC50,[2]; [8],40 nM
"Cc1cc(-c2c(OC[C@@H](O)CO)nc(N)nc2-c2ccc(F)cc2)cc(C(F)F)n1 [Example 83, (S)-3-((2-amino-5-(2-(difluoromethyl)-6-methylpyridin-4-yl)-6-(4-fluorophenyl)pyrimidin-4-yl)oxy)propane-1,2-diol]",IC50,[3]; [7],13 nM
same,IC50,[2]; [8],2.9 nM and 7.3 nM and 22 nM
same,IC50,[2]; [9],1610 nM
"Cc1cc(-c2c(OCC(CO)N(C)c3ccccn3)nc(N)nc2-c2ccc(F)cc2)cc(C(F)F)n1 (centres unmarked) [Example 199, 3-((2-amino-5-(2-(difluoromethyl)-6-methylpyridin-4-yl)-6-(4-fluorophenyl)pyrimidin-4-yl)oxy)-2-(methyl(pyridin-2-yl)amino)propan-1-ol]",IC50,[3]; HTRF,7.2 nM
same,IC50,[2]; [6],148 nM
"Cc1cc(-c2c(OCC3CNC3)nc(N)nc2-c2ccc(F)cc2)cc(C(F)F)n1 [Example 75, 4-(azetidin-3-ylmethoxy)-5-(2-(difluoromethyl)-6-methylpyridin-4-yl)-6-(4-fluorophenyl)pyrimidin-2-amine]",IC50,[3]; [7],201 nM
same,IC50,[2]; [8],89 nM
